This is an account of results in patent publication US8426385B2 (Hainan Hdeton Science and Technology Co. Ltd., priority 2006, dated 2013).

Converted amounts (≈) assume the structure as drawn.

Data set [1] can be described thus: Determination of inclusion stability constant Ka by UV spectrophotometry. Type of data set: physicochemical. The conditions noted are these: 234 nm. As for the experimental part: The inclusion stability constant Ka is used to determine the degree of inclusion and UV spectrophotometry is one of common methods to determine Ka. […] Meanwhile, the changes of Ka after adding ethanol are determined in the test, and the Ka values of different cyclodextrins are shown in Table 1.

A short description of data set [2]: Inclusion solubilization test (paclitaxel solubility in cyclodextrin solution). Type of data set: physicochemical. To be noted: 25° C.; for Paclitaxel solubility in cyclodextrin solution: 72 h.
Description: A standard curve was plotted by A and concentration C (mg/ml) (A=393.2 C−0.0123; r=0.9998).
Data set [3] is described as follows: Solid inclusion stability, 5-day acceleration test (HPLC content). Type of data set: physicochemical. How it is done: (§1) HPLC chromatographic conditions: chromatographic column ODS C18 (250 mm×4.6 mm); mobile phase: methanol:water:acetonitrile (20:30:50); flow rate: 1.0 ml/min; detection wavelength: 228 nm; detection time: 30.00 min; detection sensitivity: 1.0000 AUFS.
Samples were put in a sealed transparent container and then placed in an illumination box equipped with fluorescent light of 4500±500 LX illumination intensity for 5 days. Sampling inspection analysis was conducted, and the test results were compared with the samples of 0 day.
Samples were placed in a clean sealed container at temperature of 60° C. for 5 days. Sampling inspection analysis was conducted, and the test results were compared with the samples of 0 day.
Samples were placed in a sealed container of constant humidity at temperature of 25° C. and relative humidity of 90±5% for 5 days. Sampling inspection analysis was conducted, and the test results were compared with the samples of 0 day.

Data set [4] in a line: Paclitaxel stability test in solution (HPLC assay). Type of data set: physicochemical. To be noted: mobile phase pH=6.50, diluted 100 times. How it is done:
as §1
The sample solutions had stable chemical properties and the content was basically unchanged.

A further data set concerns S180 cells. In words: In vivo anti-tumor effect, S180 solid tumor model. To be noted: Kunming mice, intraperitoneal, 7 days, 5 mg/kg dose (printed for the inclusion).
Data set [5] can be described thus: Animal body weight in the S180 anti-tumor test. To be noted: S180 solid tumor, Kunming mice, intraperitoneal, 7 days.
For data set [6] the following is noted: aqueous solution; UV spectrum study; cited from earlier work.
The conditions of data set [7]: phase solubility studies; cited from earlier work.
The conditions of data set [8]: about 50% cyclodextrin aqueous solution, pure water; cited from earlier work.
For data set [9] the following is noted: cited from earlier work.
[10] abbreviates: cyclodextrin concentration 31 %.

As for hydroxypropyl-sulfobutyl-β-cyclodextrin, the “first-level apparent stability constant Ka of cyclodextrin/paclitaxel” value in data set [1] (60% EtOH) worked out at 19722 M⁻¹; in data set [1] (H2O), 14121 M⁻¹. Also, the “Paclitaxel solubility in cyclodextrin solution” value in [2] (setting [10]) was 11177 µg/mL.
In the case of `CC(=O)O[C@H]1C(=O)[C@@]2(C)[C@H]([C@H](OC(=O)c3ccccc3)[C@]3(O)C[C@H](OC(=O)[C@H](O)[C@@H](NC(=O)c4ccccc4)c4ccccc4)C(C)=C1C3(C)C)[C@]1(OC(C)=O)CO[C@@H]1C[C@@H]2O` [Paclitaxel, (2S,5R,7S,10R,13S)-10,20-bi(acetoxy)-2-benzoyl-oxy-1,7-dihydroxy-9-oxo-5,20-epoxy taxanes-11-ene-13-radical(3S)-3-benzoyl amino-3-phenyl-D-lactic acid ester], the concentration in solution in data set [2] (thermodynamic from solid, pure water, cyclodextrin concentration 0 %) (solubility at 72 h) was 0.589 µg/mL (≈ 0.69 µM). Further, the Content in [3] (0 day) turned out to be 99.748%; in data set [3] (High humidity, 25° C., RH 90±5%, 5 days), 89.336%; in data set [3] (High temperature, 60° C., 5 days), 91.569%; in [3] (Light, 4500±500 LX, 5 days), 90.346%. The “Content in aqueous solution” value in [4] (0 h) is 99.745%; in data set [4] (2 h) it was 99.700%; in [4] (4 h), 99.577%; in [4] (6 h), 99.648%; in [4] (8 h) it was 99.608%. Also, the anti-tumor rate in the data set with S180 cells is on record as 82.77%. The “effect on animal body weight” value in data set [5] was “reduce the animal body weight”. The “weight loss of animals compared with the inclusion group” value in data set [5] was “greater”.
Consider hydroxypropyl-β-cyclodextrin, for which the “first-level apparent stability constant Ka of cyclodextrin/paclitaxel” value is 4646 M⁻¹ in [1] (60% EtOH) and 1325 M⁻¹ in data set [1] (H2O). For the same compound, the inclusion constant in [6] was 3030 M⁻¹. In data set [7], the “dual-inclusion constant with paclitaxel” value was 7965 M^−. Moreover, the paclitaxel solubility in data set [8] is 3400 µg/mL.
Turning to `OC[C@H]1O[C@@H]2O[C@H]3[C@H](O)[C@@H](O)[C@@H](O[C@H]4[C@H](O)[C@@H](O)[C@@H](O[C@H]5[C@H](O)[C@@H](O)[C@@H](O[C@H]6[C@H](O)[C@@H](O)[C@@H](O[C@H]7[C@H](O)[C@@H](O)[C@@H](O[C@H]8[C@H](O)[C@@H](O)[C@@H](O[C@H]1[C@H](O)[C@H]2O)O[C@@H]8CO)O[C@@H]7CO)O[C@@H]6CO)O[C@@H]5CO)O[C@@H]4CO)O[C@@H]3CO` [β-cyclodextrin], the “first-level apparent stability constant Ka of cyclodextrin/paclitaxel” value in data set [1] (H2O) worked out at 413 M⁻¹.
As for sulfobutyl-β-cyclodextrin, the results for the “first-level apparent stability constant Ka of cyclodextrin/paclitaxel” value in data set [1] (60% EtOH) and in data set [1] (H2O) were 9367 M⁻¹ and 5396 M⁻¹, respectively. In addition, the “Paclitaxel solubility in cyclodextrin solution” value in [2] (cyclodextrin concentration 25 %) came out at 9324 µg/mL; in [2] (setting [10]) it was 10182 µg/mL. In addition, in data set [9], the water-solubility is given as more than 50 g/100 g H2O.
For the compound `OC[C@H]1O[C@@H]2O[C@H]3[C@H](O)[C@@H](O)[C@@H](O[C@H]4[C@H](O)[C@@H](O)[C@@H](O[C@H]5[C@H](O)[C@@H](O)[C@@H](O[C@H]6[C@H](O)[C@@H](O)[C@@H](O[C@H]7[C@H](O)[C@@H](O)[C@@H](O[C@H]8[C@H](O)[C@@H](O)[C@@H](O[C@H]9[C@H](O)[C@@H](O)[C@@H](O[C@H]1[C@H](O)[C@H]2O)O[C@@H]9CO)O[C@@H]8CO)O[C@@H]7CO)O[C@@H]6CO)O[C@@H]5CO)O[C@@H]4CO)O[C@@H]3CO` [γ-cyclodextrin], the “dual-inclusion constant with paclitaxel” value in data set [7] is 785 M⁻¹.
